Common to all, as to type: functional
For experiment [1], the system named is Candida albicans. Put plainly: Antifungal activity against Candida albicans ATCC 90028 assessed as planktonic growth inhibition at 0.08 uM after 48 hrs by M27-A3 protocol based method relative to control. The following applies: ATCC 90028, 48 h, read-out: GI.
The subject of experiment [2] is Candida albicans. Put plainly: Antifungal activity against Candida albicans ATCC 90028 assessed as planktonic growth inhibition at 0.16 uM after 48 hrs by M27-A3 protocol based method relative to control. To be noted: ATCC 90028, 48 h, read-out: GI.
Experiment [3] relates to Candida albicans. Description: Antifungal activity against Candida albicans ATCC 90028 assessed as planktonic growth inhibition at 0.33 uM after 48 hrs by M27-A3 protocol based method relative to control. To be noted: ATCC 90028, 48 h, read-out: GI.
Experiment [4] deals with Candida albicans. Put plainly: Antifungal activity against Candida albicans ATCC 90028 assessed as planktonic growth inhibition at 0.65 uM after 48 hrs by M27-A3 protocol based method relative to control. The following applies: ATCC 90028, 48 h, read-out: GI.
Experiment [5] concerns Candida albicans. Put plainly: Antifungal activity against Candida albicans ATCC 90028 assessed as planktonic growth inhibition at 1.31 uM after 48 hrs by M27-A3 protocol based method relative to control. The following applies: ATCC 90028, 48 h, read-out: GI.
The subject of experiment [6] is Candida albicans. Description: Antifungal activity against Candida albicans ATCC 90028 assessed as planktonic growth inhibition at 2.62 uM after 48 hrs by M27-A3 protocol based method relative to control. To be noted: ATCC 90028, 48 h, read-out: GI.
For experiment [7], the system named is Candida albicans. Description: Antifungal activity against Candida albicans ATCC 90028 assessed as planktonic growth inhibition at 5.24 uM after 48 hrs by M27-A3 protocol based method relative to control. To be noted: ATCC 90028, 48 h, read-out: GI.
Experiment [8] has as its system Candida albicans. Description: Antifungal activity against Candida albicans ATCC 90028 assessed as planktonic growth inhibition at 10.47 uM after 48 hrs by M27-A3 protocol based method relative to control. To be noted: ATCC 90028, 48 h, read-out: GI.
Experiment [9] concerns Candida albicans. Description: Antifungal activity against Candida albicans ATCC 90028 assessed as planktonic growth inhibition at 20.95 uM after 48 hrs by M27-A3 protocol based method relative to control. To be noted: ATCC 90028, 48 h, read-out: GI.
Experiment [10] deals with Candida albicans. Description: Antifungal activity against Candida albicans ATCC 90028 assessed as planktonic growth inhibition at 41.9 uM after 48 hrs by M27-A3 protocol based method relative to control. The following applies: ATCC 90028, 48 h, read-out: GI.
Experiment [11] deals with Candida albicans. Description: Fungicidal activity against Candida albicans ATCC 90028 assessed as log reduction in fungal load incubated for 48 hrs followed by replating on sabouraud dextrose agar plate and measured after 48 hrs.
Experiment [12] has as its system Candida albicans. Put plainly: Antifungal activity against Candida albicans ATCC 90028 assessed as planktonic growth inhibition at 0.17 uM after 48 hrs by M27-A3 protocol based method relative to control. The following applies: ATCC 90028, 48 h, read-out: GI.
Experiment [13] deals with Candida albicans. Description: Antifungal activity against Candida albicans ATCC 90028 assessed as planktonic growth inhibition at 0.34 uM after 48 hrs by M27-A3 protocol based method relative to control. To be noted: ATCC 90028, 48 h, read-out: GI.
In experiment [14] the test system is Candida albicans. Description: Antifungal activity against Candida albicans ATCC 90028 assessed as planktonic growth inhibition at 0.68 uM after 48 hrs by M27-A3 protocol based method relative to control. The following applies: ATCC 90028, 48 h, read-out: GI.
Experiment [15] deals with Candida albicans. Put plainly: Antifungal activity against Candida albicans ATCC 90028 assessed as planktonic growth inhibition at 1.36 uM after 48 hrs by M27-A3 protocol based method relative to control. The following applies: ATCC 90028, 48 h, read-out: GI.
In experiment [16] the test system is Candida albicans. Description: Antifungal activity against Candida albicans ATCC 90028 assessed as planktonic growth inhibition at 2.72 uM after 48 hrs by M27-A3 protocol based method relative to control. To be noted: ATCC 90028, 48 h, read-out: GI.
The test system of experiment [17] is Candida albicans. Put plainly: Antifungal activity against Candida albicans ATCC 90028 assessed as planktonic growth inhibition at 5.44 uM after 48 hrs by M27-A3 protocol based method relative to control. To be noted: ATCC 90028, 48 h, read-out: GI.
Experiment [18] relates to Candida albicans. Put plainly: Antifungal activity against Candida albicans ATCC 90028 assessed as planktonic growth inhibition at 10.87 uM after 48 hrs by M27-A3 protocol based method relative to control. To be noted: ATCC 90028, 48 h, read-out: GI.
Experiment [19] has as its system Candida albicans. Description: Antifungal activity against Candida albicans ATCC 90028 assessed as planktonic growth inhibition at 21.75 uM after 48 hrs by M27-A3 protocol based method relative to control. To be noted: ATCC 90028, 48 h, read-out: GI.
Experiment [20] concerns Candida albicans. Description: Antifungal activity against Candida albicans ATCC 90028 assessed as planktonic growth inhibition at 43.49 uM after 48 hrs by M27-A3 protocol based method relative to control. To be noted: ATCC 90028, 48 h, read-out: GI.
In experiment [21] the test system is Candida albicans. Description: Antifungal activity against Candida albicans ATCC 90028 assessed as planktonic growth inhibition at 0.09 uM after 48 hrs by M27-A3 protocol based method relative to control. To be noted: ATCC 90028, 48 h, read-out: GI.
Experiment [22] relates to Candida albicans. Description: Antifungal activity against Candida albicans ATCC 90028 assessed as planktonic growth inhibition at 0.18 uM after 48 hrs by M27-A3 protocol based method relative to control. To be noted: ATCC 90028, 48 h, read-out: GI.
In experiment [23] the test system is Candida albicans. Put plainly: Antifungal activity against Candida albicans ATCC 90028 assessed as planktonic growth inhibition at 0.36 uM after 48 hrs by M27-A3 protocol based method relative to control. To be noted: ATCC 90028, 48 h, read-out: GI.
Experiment [24] relates to Candida albicans. Put plainly: Antifungal activity against Candida albicans ATCC 90028 assessed as planktonic growth inhibition at 0.72 uM after 48 hrs by M27-A3 protocol based method relative to control. To be noted: ATCC 90028, 48 h, read-out: GI.
In experiment [25] the test system is Candida albicans. Description: Antifungal activity against Candida albicans ATCC 90028 assessed as planktonic growth inhibition at 1.44 uM after 48 hrs by M27-A3 protocol based method relative to control. To be noted: ATCC 90028, 48 h, read-out: GI.
Experiment [26] concerns Candida albicans. Description: Antifungal activity against Candida albicans ATCC 90028 assessed as planktonic growth inhibition at 2.88 uM after 48 hrs by M27-A3 protocol based method relative to control. The following applies: ATCC 90028, 48 h, read-out: GI.
The subject of experiment [27] is Candida albicans. Put plainly: Antifungal activity against Candida albicans ATCC 90028 assessed as planktonic growth inhibition at 5.76 uM after 48 hrs by M27-A3 protocol based method relative to control. To be noted: ATCC 90028, 48 h, read-out: GI.
Experiment [28] deals with Candida albicans. Put plainly: Antifungal activity against Candida albicans ATCC 90028 assessed as planktonic growth inhibition at 11.51 uM after 48 hrs by M27-A3 protocol based method relative to control. The following applies: ATCC 90028, 48 h, read-out: GI.
Experiment [29] concerns Candida albicans. Put plainly: Antifungal activity against Candida albicans ATCC 90028 assessed as planktonic growth inhibition at 23.02 uM after 48 hrs by M27-A3 protocol based method relative to control. The following applies: ATCC 90028, 48 h, read-out: GI.
Experiment [30] relates to Candida albicans. Description: Antifungal activity against Candida albicans ATCC 90028 assessed as planktonic growth inhibition at 46.05 uM after 48 hrs by M27-A3 protocol based method relative to control. To be noted: ATCC 90028, 48 h, read-out: GI.

As to `Cc1ccc(C2CCCN2CCCn2nnc(-c3ccccc3Cl)n2)cc1` (stereo not given), the inhibition of growth at 0.08 µM in the experiment with Candida albicans [1] amounted to 98.8%. For the same molecule, the inhibition of growth at 0.16 µM with Candida albicans [2] turned out to be 98.9%. Also, the inhibition of growth at 0.33 µM with Candida albicans [3] was determined as 99.2%. The inhibition of growth at 0.65 µM in the experiment with Candida albicans [4] stood at 99.2%. Besides, in the experiment with Candida albicans [5], the inhibition of growth at 1.31 µM was found to be 99.2%. In the experiment on Candida albicans [6], the inhibition of growth at 2.62 µM turned out to be 99.3%. In addition, the inhibition of growth at 5.24 µM in the experiment with Candida albicans [7] is 99.4%. Moreover, the inhibition of growth at 10.47 µM with Candida albicans [8] is 99.5%. For the same molecule, in the experiment with Candida albicans [9], the inhibition of growth at 20.95 µM came to 99.5%. Moreover, the inhibition of growth at 41.9 µM in the experiment on Candida albicans [10] was 99.6%. In addition, in the experiment with Candida albicans [11], the “log(activity)” value is listed as -0.2.

Regarding `Cc1cccc(C2CCCN2CCCn2nnc(-c3ccc(Cl)cc3)n2)c1` (stereo not given), the inhibition of growth at 0.08 µM in the experiment on Candida albicans [1] stood at 99.3%. Further, the inhibition of growth at 0.16 µM in the experiment on Candida albicans [2] is 99.3%. Also, the inhibition of growth at 0.33 µM in the experiment on Candida albicans [3] worked out at 99.3%. The inhibition of growth at 0.65 µM in the experiment on Candida albicans [4] was found to be 99.3%. In addition, the inhibition of growth at 1.31 µM with Candida albicans [5] amounted to 99.3%. For the same molecule, the inhibition of growth at 2.62 µM in the experiment on Candida albicans [6] turned out to be 99.3%. The inhibition of growth at 5.24 µM with Candida albicans [7] worked out at 99.3%. In addition, the inhibition of growth at 10.47 µM with Candida albicans [8] was determined as 98.9%. Besides, in the experiment on Candida albicans [9], the inhibition of growth at 20.95 µM was determined as 98.8%. For the same molecule, in the experiment on Candida albicans [10], the inhibition of growth at 41.9 µM turned out to be 98.9%. Moreover, the “log(activity)” value with Candida albicans [11] is -0.4.

`Clc1ccccc1-c1nnn(CCCN2CCCC2c2ccccc2)n1` (stereo not given): in the experiment with Candida albicans [1], the inhibition of growth at 0.08 µM is 98.8%. Also, the inhibition of growth at 0.17 µM in the experiment with Candida albicans [12] is 98.9%. The inhibition of growth at 0.34 µM with Candida albicans [13] worked out at 99%. Also, in the experiment on Candida albicans [14], the inhibition of growth at 0.68 µM was found to be 99%. The inhibition of growth at 1.36 µM in the experiment on Candida albicans [15] is 99.1%. The inhibition of growth at 2.72 µM in the experiment with Candida albicans [16] was 99.1%. In the experiment with Candida albicans [17], the inhibition of growth at 5.44 µM amounted to 99.1%. Moreover, the inhibition of growth at 10.87 µM in the experiment on Candida albicans [18] was 99.2%. In addition, the inhibition of growth at 21.75 µM in the experiment on Candida albicans [19] worked out at 99.4%. Further, the inhibition of growth at 43.49 µM in the experiment on Candida albicans [20] was found to be 99.5%. The “log(activity)” value in the experiment with Candida albicans [11] is reported as -0.3.

For the molecule `Cc1ccc(-c2nnn(CCCN3CCCC3c3ccc(Cl)cc3)n2)cc1` (stereo not given), the inhibition of growth at 0.08 µM with Candida albicans [1] turned out to be 99.4%. Further, the inhibition of growth at 0.16 µM in the experiment on Candida albicans [2] stood at 99.5%. Also, the inhibition of growth at 0.33 µM in the experiment on Candida albicans [3] was 99.2%. Moreover, in the experiment with Candida albicans [4], the inhibition of growth at 0.65 µM came to 99.1%. Further, the inhibition of growth at 1.31 µM in the experiment on Candida albicans [5] came out at 99.2%. The inhibition of growth at 2.62 µM with Candida albicans [6] worked out at 99.3%. The inhibition of growth at 5.24 µM in the experiment on Candida albicans [7] came to 99%. The inhibition of growth at 10.47 µM in the experiment with Candida albicans [8] worked out at 99.4%. Moreover, in the experiment on Candida albicans [9], the inhibition of growth at 20.95 µM turned out to be 99.2%. Besides, the inhibition of growth at 41.9 µM in the experiment on Candida albicans [10] was determined as 98.8%. Further, the “log(activity)” value with Candida albicans [11] is on record as -0.4.

On to `Cc1ccc(C2CCCN2CCCn2nnc(-c3ccccc3)n2)cc1` (stereo not given), for which the inhibition of growth at 0.09 µM with Candida albicans [21] stood at 98.9%. Further, in the experiment on Candida albicans [22], the inhibition of growth at 0.18 µM was determined as 99.3%. The inhibition of growth at 0.36 µM in the experiment on Candida albicans [23] came to 99%. Besides, in the experiment with Candida albicans [24], the inhibition of growth at 0.72 µM is 99.3%. Moreover, in the experiment with Candida albicans [25], the inhibition of growth at 1.44 µM worked out at 99.2%. The inhibition of growth at 2.88 µM in the experiment on Candida albicans [26] worked out at 99.2%. For the same molecule, the inhibition of growth at 5.76 µM in the experiment on Candida albicans [27] was 99.2%. Besides, the inhibition of growth at 11.51 µM in the experiment with Candida albicans [28] came out at 99.5%. For the same molecule, the inhibition of growth at 23.02 µM with Candida albicans [29] was 99%. The inhibition of growth at 46.05 µM with Candida albicans [30] was found to be 99%. The “log(activity)” value in the experiment on Candida albicans [11] was -0.6.

The values above are taken from ChEMBL document CHEMBL4411303, “Synthesis of tetrazole derivatives bearing pyrrolidine scaffold and evaluation of their antifungal activity against Candida albicans” (Eur J Med Chem, 2019).
